Consider one molecule from patent US9161894B2, “Use of N-(4-methoxyphenyl)-1-phenyl-1H-pyrazol-3-amine and related compounds” (NPHARMAKON, LLC, priority 2011, dated 2015).

Where “and” joins values, the source holds several entries; their conditions need not be identical. Equal entries are not always repeated. Where two headings read alike, the source gives them in different places.

In one series the target is T1, Kit (human) (Homo sapiens, UniProt P10721).
T1 construct: purchased EMD Millipore Corporation (KinaseProfiler service)
Nature of the series: Millipore KinaseProfiler radiometric-based filtration binding assay of Kit kinase. To be noted: biochemical assay, read-out: IC50 of Kit kinase inhibition (converted). As for the experimental part:
To characterize the inhibitory activity of FPL-62064 against Kit kinase, the drug was tested using Millipore KinaseProfiler radiometric-based filtration binding assay (EMD Millipore Corporation, Billerica, Mass.). In a final reaction volume of 25 μL, Kit (human) (5-10 mU) was incubated with 8 mM MOPS pH 7.0, 0.2 mM EDTA, 10 mM MnCl2, 0.1 mg/mL poly(Glu, Tyr) 4:1, 10 mM MgAcetate and 10 μM [γ^33P-ATP] (specific activity approx. 500 cpm/pmol). The reaction was initiated by the addition of the MgATP mix. After incubation for 40 minutes at room temperature, the reaction was stopped by the addition of 5 μL of a 3% phosphoric acid solution. 10 μL of the reaction was then spotted onto a Filtermat A and washed three times for 5 minutes in 75 mM phosphoric acid and once in methanol prior to drying and scintillation counting.

Series [1] has as its target T2, Kit autophosphorylation in M07e cells (Homo sapiens, UniProt P10721).
T2 construct: expressing endogenously a high level of wild-type Kit; host or cells: M07e (human acute megakaryoblastic leukemia)
Put plainly: Cellular Kit phosphorylation assay (ProQinase sandwich ELISA) in M07e cells. The class given is cell-based. A general note: An ELISA detects its analyte on a solid surface through an enzyme-linked reagent.
Method: The human acute megakaryoblastic leukemia cell line M07e expressing endogenously a high level of wild-type Kit was used in the cellular Kit phosphorylation assay. Stimulation of these cells with human Kit ligand results in receptor tyrosine autophosphorylation. M07e cells were plated in RPMI supplemented with 20% FCS and 10 ng/ml GM-CSF in multiwell cell culture plates. After serum- and growth factor-starvation overnight, cells were incubated with test compounds in serum-free medium. Pre-diluted test samples were added 1:100 to the cell culture medium resulting in a final DMSO concentration of 1%. After 90 minute incubation at 37° C., cells were stimulated with 100 ng/ml Kit ligand for 3 minutes. Cells treated with staurosporine were defined as Low control, and cells treated with solvent alone were defined as High control. Test sample-treated cells, as well as High and Low control, were stimulated in identical manner. Quantification of substrate phosphorylation was assessed in 96 well plates via sandwich ELISA using a substrate specific capture antibody and an anti-phosphotyrosine detection antibody. Raw data were converted into percent substrate phosphorylation relative to High control, set to 100%. […] The equation is a four-parameter logistic equation.

The subject of series [2] is darker human skin (pigmentation). Put plainly: Single-blind pilot clinical study of skin lightening on darker human skin. Format: in vivo. The settings on record: day 29 / end of study, significance at p<0.05. As for the experimental part:
The study protocol and informed consent form were reviewed and approved by the Guangzhou Institutional Review Board (Guangzhou, China) prior to the initiation of the study. […]
The following test formulations were prepared and pH of each formulation was measured, as shown below. […]
Lower back of each subject was used as the test area. Five identically sized application sites (square 3 cm by 3 cm) were marked on the skin of each subject and labeled A through E. 0.1 gram of each material, as measured by extrusion from a syringe, was applied on the appropriate site, using a gloved finger, by a trained technician, guided by markings on the skin and the application site diagram. […]
L value (brightness) reading was taken in duplicate with the spectrophotometer CM-2600d (Konica Minolta, Osaka, Japan). The melanin (M) index reading was taken in duplicate with a Mexameter® MX18 (Courage & Khazaka, Cologne, Germany). […]
Statistical analysis was performed using the computer program SigmaStat 11 (Systat Software Inc., Chicago, Ill., USA) on a Microsoft Windows computer. For all data (Visual Scoring (VS), L value (brightness) (L), and MeIanin Index (M)), the baseline readings were subtracted prior to analysis. […]

The test system of another series is human skin. Nature of the series: Safety and adverse events at application sites in the pilot clinical study. The class given is in vivo. To be noted: topical twice daily, any time point during the study. On the procedure: Lower back of each subject was used as the test area. Five identically sized application sites (square 3 cm by 3 cm) were marked on the skin of each subject and labeled A through E. 0.1 gram of each material, as measured by extrusion from a syringe, was applied on the appropriate site, using a gloved finger, by a trained technician, guided by markings on the skin and the application site diagram. The application was carried out in an accredited outpatient facility twice daily (morning and afternoon/evening), 6 days per week (with no treatments on Sunday). The procedure was continued in the same manner for the duration of the study. Subjects 2, 3 and 4 entered the study on day 1 (Friday) and each received 48 treatments (no subject missed any of the treatments). Subjects 8, 9, and 10 entered the study on day 4 (Monday) and each received 44 treatments. No subject missed any of the treatments.
In all cases, the condition of the sites treated with Formulation E improved upon termination of the treatment.

For a further series, the target named is T3, 5-lipoxygenase (5-LO) (Homo sapiens, UniProt P09917).
T3 sequence (P09917 1-674): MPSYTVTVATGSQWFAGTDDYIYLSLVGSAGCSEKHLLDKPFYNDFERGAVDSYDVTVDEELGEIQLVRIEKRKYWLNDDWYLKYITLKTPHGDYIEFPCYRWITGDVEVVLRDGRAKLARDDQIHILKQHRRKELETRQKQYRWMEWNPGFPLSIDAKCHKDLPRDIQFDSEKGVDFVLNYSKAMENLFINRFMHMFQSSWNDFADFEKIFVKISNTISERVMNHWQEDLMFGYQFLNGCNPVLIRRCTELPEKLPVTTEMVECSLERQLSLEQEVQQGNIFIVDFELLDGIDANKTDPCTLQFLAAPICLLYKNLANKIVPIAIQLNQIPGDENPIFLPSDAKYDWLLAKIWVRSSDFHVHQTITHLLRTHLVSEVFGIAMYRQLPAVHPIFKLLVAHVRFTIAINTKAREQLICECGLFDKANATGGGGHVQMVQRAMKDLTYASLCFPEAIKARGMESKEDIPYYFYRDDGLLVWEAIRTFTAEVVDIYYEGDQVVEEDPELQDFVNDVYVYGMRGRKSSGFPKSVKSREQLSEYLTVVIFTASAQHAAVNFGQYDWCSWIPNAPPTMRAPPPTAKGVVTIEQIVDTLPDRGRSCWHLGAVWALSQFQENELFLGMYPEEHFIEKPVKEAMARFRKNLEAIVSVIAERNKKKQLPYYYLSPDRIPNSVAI
The settings on record: in vitro assays; cited from earlier work.

Series [3] addresses prostaglandin synthetase (PGS). To be noted: in vitro assays; cited from earlier work.
Series [4] concerns the target T4, 5-LO in intact RBL-1 cells (Rattus norvegicus, UniProt P12527).
T4 construct: endogenous in cells; host or cells: RBL-1 cells
T4 sequence (P12527 1-673): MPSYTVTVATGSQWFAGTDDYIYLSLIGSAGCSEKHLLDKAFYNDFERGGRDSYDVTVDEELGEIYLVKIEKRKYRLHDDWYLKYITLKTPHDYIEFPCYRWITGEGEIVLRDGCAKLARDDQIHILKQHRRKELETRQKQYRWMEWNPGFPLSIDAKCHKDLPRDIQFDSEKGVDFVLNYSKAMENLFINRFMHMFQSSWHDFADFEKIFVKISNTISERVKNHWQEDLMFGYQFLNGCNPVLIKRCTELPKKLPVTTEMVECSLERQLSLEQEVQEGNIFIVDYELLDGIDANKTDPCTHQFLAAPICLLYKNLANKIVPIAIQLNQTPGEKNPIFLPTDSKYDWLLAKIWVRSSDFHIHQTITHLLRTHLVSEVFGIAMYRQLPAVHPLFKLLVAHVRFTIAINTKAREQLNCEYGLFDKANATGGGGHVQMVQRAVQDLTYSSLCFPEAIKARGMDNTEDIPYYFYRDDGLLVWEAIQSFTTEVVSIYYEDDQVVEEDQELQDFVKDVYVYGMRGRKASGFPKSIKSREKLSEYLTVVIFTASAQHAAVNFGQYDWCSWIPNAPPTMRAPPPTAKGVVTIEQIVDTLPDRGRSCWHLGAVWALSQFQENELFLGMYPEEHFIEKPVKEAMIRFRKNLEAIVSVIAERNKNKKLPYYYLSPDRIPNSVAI
The settings on record: cited from earlier work.

Series [5] deals with PGS in intact RBL-1 cells. The settings on record: cited from earlier work.
Series [6] relates to UV irradiation-induced erythema. To be noted: guinea pig; cited from earlier work.
Series [7] concerns arachidonic acid-induced ear edema. The settings on record: mouse ear; cited from earlier work.
The test system of the next series is rabbit skin edema. The settings on record: co-injected with arachidonic acid; cited from earlier work.
The subject of series [8] is immune-complex-induced peritoneal inflammation. The settings on record: mouse, intraperitoneal, fine suspension in saline; cited from earlier work.
For a further series, the system named is carrageenin foot edema. The settings on record: rats, oral route, doses up to 200 mg/kg; cited from earlier work.
The conditions of series [9]: cited from earlier work.
The conditions of series [10]: humans, preliminary data; cited from earlier work.

T1 sequence (P10721 26-976): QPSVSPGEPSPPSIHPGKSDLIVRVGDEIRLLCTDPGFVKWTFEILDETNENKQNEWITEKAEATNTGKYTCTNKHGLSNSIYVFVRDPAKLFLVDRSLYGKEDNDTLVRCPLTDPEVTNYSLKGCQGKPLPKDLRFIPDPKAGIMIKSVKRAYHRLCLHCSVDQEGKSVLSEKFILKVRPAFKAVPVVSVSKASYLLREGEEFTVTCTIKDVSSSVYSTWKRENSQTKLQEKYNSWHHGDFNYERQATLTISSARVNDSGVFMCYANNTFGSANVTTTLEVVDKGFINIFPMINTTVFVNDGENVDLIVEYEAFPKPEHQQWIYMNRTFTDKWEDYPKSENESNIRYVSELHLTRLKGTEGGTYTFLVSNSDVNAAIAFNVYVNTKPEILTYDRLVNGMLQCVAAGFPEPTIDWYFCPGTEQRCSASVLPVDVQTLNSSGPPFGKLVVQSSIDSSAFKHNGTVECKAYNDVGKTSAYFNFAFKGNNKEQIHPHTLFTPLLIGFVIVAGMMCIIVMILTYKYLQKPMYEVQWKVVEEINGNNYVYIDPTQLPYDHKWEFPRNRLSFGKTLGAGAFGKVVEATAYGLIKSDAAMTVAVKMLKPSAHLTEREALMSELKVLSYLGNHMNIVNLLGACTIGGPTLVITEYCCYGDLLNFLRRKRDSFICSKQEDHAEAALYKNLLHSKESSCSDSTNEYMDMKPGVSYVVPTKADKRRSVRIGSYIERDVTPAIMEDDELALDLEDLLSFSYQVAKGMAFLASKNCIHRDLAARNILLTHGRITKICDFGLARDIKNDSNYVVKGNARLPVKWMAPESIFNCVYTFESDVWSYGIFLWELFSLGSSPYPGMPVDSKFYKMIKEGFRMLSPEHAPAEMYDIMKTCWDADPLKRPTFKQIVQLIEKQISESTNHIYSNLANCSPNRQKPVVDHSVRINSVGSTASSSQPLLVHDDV
T2 sequence (P10721 26-976): as above
T2 sequence (P21583 26-190 partner limits assumed): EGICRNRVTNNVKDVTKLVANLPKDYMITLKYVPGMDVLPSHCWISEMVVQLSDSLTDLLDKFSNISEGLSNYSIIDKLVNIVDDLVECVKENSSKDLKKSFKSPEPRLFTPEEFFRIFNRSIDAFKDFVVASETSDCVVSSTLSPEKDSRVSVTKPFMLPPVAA

One may read the IC50 as the concentration that inhibits the measured activity by half. For the molecule `COc1ccc(Nc2ccn(-c3ccccc3)n2)cc1` [FPL-62064, N-(4-methoxyphenyl)-1-phenyl-1H-pyrazol-3-amine], the IC50 on Kit (human) (10 μM ATP) is 6.9 µM and 6.89 µM; at Kit (human) (same value in mass units) it was 7.54 µM; in [1] (90 min incubation, 100 ng/ml Kit ligand) it was 1.2 µM; in series [1] (same value in mass units), 1.13 µM; on 5-lipoxygenase (5-LO) it was 3.5 to 11.5 µM; in series [3], 3.1 µM. For the same molecule, the IC50 in series [4] is 31 µM; in [5] it was 3.6 µM. In addition, in [2], the “change of the melanin index (M) from baseline compared to the control site (Formulation D, vehicle)” value is recorded as “statistically significant decrease”. Besides, the “adverse events, sensitivity or irritation at treated sites” value in the series with human skin is “well tolerated”. Moreover, the “UV irradiation-induced erythema and prostaglandin E2 formation” value in series [6] is recorded as “inhibited”. Also, the “edema formation and eicosanoid production induced by arachidonic acid” value in [7] is listed as “inhibited”. In the series with rabbit skin edema, the “edema and eicosanoid formation” value is recorded as “inhibited”. Further, in [8], the “activity against immune-complex-induced peritoneal inflammation” value is “demonstrated local activity”. Besides, the “activity against carrageenin foot edema” value with carrageenin foot edema is “inactive”. In addition, the topical bioavailability entry in series [9] (topical) is given as “topically bioavailable”. For the same molecule, in series [9] (upon intravenous administration), the metabolism entry was “rapidly and extensively metabolized”. The “safety and tolerability of topical application” value in [10] is “safe and well tolerated”.
